Key:
Mus musculus = species on record: Mus musculus; experiment: Minimum effective dose required for significant reduction in blood glucose in ob/ob mice; assay type: functional
[1] = target: T1, Peroxisome proliferator-activated receptor alpha (Mus musculus, UniProt P23204); experiment: In vitro transcriptional activation of peroxisome proliferator activated alpha-receptor (PPAR) expressed in CV-1 cells; Inactive; assay type: functional, cell-based
T1 sequence (P23204 whole entry): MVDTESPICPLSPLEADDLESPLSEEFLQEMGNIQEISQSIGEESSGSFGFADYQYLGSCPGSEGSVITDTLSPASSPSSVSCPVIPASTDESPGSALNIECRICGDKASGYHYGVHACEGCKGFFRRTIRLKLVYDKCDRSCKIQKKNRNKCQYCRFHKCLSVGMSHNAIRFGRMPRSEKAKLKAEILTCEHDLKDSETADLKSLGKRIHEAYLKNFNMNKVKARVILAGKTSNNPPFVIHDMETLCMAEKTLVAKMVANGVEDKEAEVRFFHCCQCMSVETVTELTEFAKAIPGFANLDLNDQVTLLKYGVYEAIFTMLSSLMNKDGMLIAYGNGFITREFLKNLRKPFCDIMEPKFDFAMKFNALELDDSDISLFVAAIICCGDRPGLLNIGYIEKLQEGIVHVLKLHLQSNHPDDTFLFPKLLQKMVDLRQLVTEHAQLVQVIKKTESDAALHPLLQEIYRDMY

[2] = target: T2, Peroxisome proliferator-activated receptor gamma (Mus musculus, UniProt P37238)
T2 sequence (P37238 whole entry): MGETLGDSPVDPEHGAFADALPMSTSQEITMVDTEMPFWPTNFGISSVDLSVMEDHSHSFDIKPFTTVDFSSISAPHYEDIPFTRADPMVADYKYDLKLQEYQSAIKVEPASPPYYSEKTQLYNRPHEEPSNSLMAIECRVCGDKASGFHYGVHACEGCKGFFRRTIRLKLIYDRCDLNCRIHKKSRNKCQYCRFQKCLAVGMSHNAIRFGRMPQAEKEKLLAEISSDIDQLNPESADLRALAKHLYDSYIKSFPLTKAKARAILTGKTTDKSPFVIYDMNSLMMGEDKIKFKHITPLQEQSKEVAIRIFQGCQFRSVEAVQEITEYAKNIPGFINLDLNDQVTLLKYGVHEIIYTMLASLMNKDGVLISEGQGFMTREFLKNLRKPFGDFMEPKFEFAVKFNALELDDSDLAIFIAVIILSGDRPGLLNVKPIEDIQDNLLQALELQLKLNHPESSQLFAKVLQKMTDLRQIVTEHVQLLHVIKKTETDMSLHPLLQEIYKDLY
Description: In vitro transcriptional activation of Peroxisome proliferator activated receptor gamma (PPAR) expressed in CV-1 cells

[3] = target: T3, Peroxisome proliferator-activated receptor delta (Mus musculus, UniProt P35396); details: cv-1
T3 sequence (P35396 whole entry): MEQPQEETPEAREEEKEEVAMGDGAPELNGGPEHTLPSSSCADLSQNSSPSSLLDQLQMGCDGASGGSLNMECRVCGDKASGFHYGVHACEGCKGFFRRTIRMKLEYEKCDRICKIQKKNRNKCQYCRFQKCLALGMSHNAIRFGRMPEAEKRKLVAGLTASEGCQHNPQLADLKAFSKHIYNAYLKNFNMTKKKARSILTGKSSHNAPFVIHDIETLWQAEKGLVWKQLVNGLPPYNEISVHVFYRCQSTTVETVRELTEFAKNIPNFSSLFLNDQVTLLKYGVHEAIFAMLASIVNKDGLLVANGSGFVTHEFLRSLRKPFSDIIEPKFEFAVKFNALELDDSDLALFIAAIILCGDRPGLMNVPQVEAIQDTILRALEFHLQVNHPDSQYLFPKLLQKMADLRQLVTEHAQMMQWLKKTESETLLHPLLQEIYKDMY

[4] = target: T1, Peroxisome proliferator-activated receptor alpha; experiment: In vitro transcriptional activation of peroxisome proliferator activated alpha-receptor (PPAR) expressed in CV-1 cells; assay type: functional, cell-based

Structure (SMILES) | MED (Mus musculus) [µM/kg] | EC50 [1] | EC50 [2] [µM] | EC50 [3] | EC50 [4] [µM]
CC1(COc2ccc(CC3SC(=O)NC3=O)cc2)CCCCC1 (configuration not stated) [CIGLITAZONE] | 3000 | Not Active | 3 | Not Active | –
CC(C)(Oc1ccc(Cl)cc1)C(=O)O [CLOFIBRIC ACID] | – | – | 600 | Not Active | 51
CN(CCOc1ccc(/C=C2\SC(=O)NC2=O)cc1)c1ccccn1 | 300 | Not Active | 0.19 | Not Active | –
O=C(O)CCC(=O)c1ccc(Oc2ccc(Cl)cc2)cc1 | – | – | 110 | Not Active | 80
CCc1ccc(CCOc2ccc(CC3SC(=O)NC3=O)cc2)nc1 (configuration not stated) [PIOGLITAZONE] | 300 | Not Active | – | Not Active | –
O=C1NC(=O)C(Cc2ccc3c(c2)CC[C@H](Cc2ccccc2)O3)S1 (some centres not stated) [ENGLITAZONE] | – | Not Active | 13 | Not Active | –
CN(CCCOc1ccc(CC2SC(=O)NC2=O)cc1)c1nc2ccccc2o1 (configuration not stated) | 300 | Not Active | 1 | Not Active | –
CN(CCOc1ccc(/C=C2\SC(=O)NC2=O)cc1)c1nc2ccccc2o1 | 300 | Not Active | 0.14 | Not Active | –
CN(CCOc1ccc(CC2SC(=O)NC2=O)cc1)c1ccccn1 (configuration not stated) [ROSIGLITAZONE] | 3 | Not Active | – | – | –
CN(CCOc1ccc(C2SC(=O)NC2=O)cc1)c1nc2ccccc2o1 (configuration not stated) | >1000 | Not Active | 10 | Not Active | –
CN(CCOc1ccc(CC2SC(=O)NC2=O)cc1)c1nc2ccccc2o1 (configuration not stated) [BRL-48482] | 3 | Not Active | – | Not Active | –
